A word on the Ki: it is the dissociation constant of the complex between target and ligand, obtained from inhibition or displacement. Read a high Ki as a looser hold on the target.

The values below come from ChEMBL document CHEMBL1134339, “New 1-aryl-3-(4-arylpiperazin-1-yl)propane derivatives, with dual action at 5-HT1A serotonin receptors and serotonin transporter, as a new class of antidepressants” (J Med Chem, 2001).

The structures appear in SMILES notation.

In test [1] the target is T1, 5-hydroxytryptamine receptor 1A (Homo sapiens) (UniProt P08908).
T1 sequence (whole entry): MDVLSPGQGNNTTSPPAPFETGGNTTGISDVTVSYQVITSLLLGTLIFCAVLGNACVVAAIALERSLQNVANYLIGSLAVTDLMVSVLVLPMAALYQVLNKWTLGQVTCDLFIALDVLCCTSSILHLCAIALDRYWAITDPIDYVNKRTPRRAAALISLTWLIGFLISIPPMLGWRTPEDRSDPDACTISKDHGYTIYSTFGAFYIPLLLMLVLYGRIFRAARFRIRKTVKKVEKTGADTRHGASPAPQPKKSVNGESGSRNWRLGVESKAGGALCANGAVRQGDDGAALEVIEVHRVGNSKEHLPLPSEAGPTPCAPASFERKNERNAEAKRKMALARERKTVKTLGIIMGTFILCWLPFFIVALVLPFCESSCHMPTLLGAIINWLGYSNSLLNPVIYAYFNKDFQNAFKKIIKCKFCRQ
The test can be described thus: Percent increase in the Forskolin-Stimulated cAMP formation, in HeLa cells transfected with the 5-HT 1A receptor at 1 uM concentration. The test is classed as functional, cell-based. Background: cAMP levels reflect the balance of adenylyl cyclase and phosphodiesterase activity.

The subject of test [2] is Mus musculus. The test can be described thus: Time-dependent effect on 8-OH-DPAT-induced hypothermia (change in body temperature) after 60 min, in mice at 0.01 mg/kg dose. The format is functional.
For test [3], the system named is Mus musculus. The test can be described thus: Effect on immobility time in the forced swimming test (FST) in mice at 0.001 mg/kg dose. The test is classed as functional.
Test [4] concerns Rattus norvegicus. Nature of the test: Effect on helpless behavior in rats and the number of escape failures was determined in shuttle-box session-3 (SB-) at 1 mg/kg dose. The test is classed as functional.
Test [5] concerns Mus musculus. The test can be described thus: Time-dependent effect on 8-OH-DPAT-induced hypothermia (change in body temperature) after 30 min, in mice at 0.01 mg/kg dose. The test is classed as functional.
For test [6], the system named is Mus musculus. The test can be described thus: Time-dependent effect on 8-OH-DPAT-induced hypothermia (change in body temperature) after 15 min, in mice at 0.01 mg/kg dose. The format is functional.
Test [7] relates to Rattus norvegicus. The test can be described thus: Effect on helpless behavior in rats and the number of escape failures was determined in shuttle-box session-1 (SB-1) at 10 mg/kg dose. The test is classed as functional.
Test [8] relates to Mus musculus. The test can be described thus: Antidepressant-like activity in the forced swimming test (FST) in mice at 0.01 mg/kg dose; Antidepressant like activity. The format is functional.
In test [9] the test system is Mus musculus. The test can be described thus: Effect on immobility time in the forced swimming test (FST) in mice at 0.01 mg/kg dose. The test is classed as functional.
Test [10] concerns Mus musculus. The test can be described thus: Antidepressant-like activity in the forced swimming test (FST) in mice at 0.001 mg/kg dose; Antidepressant like activity. The format is functional.
Test [11] relates to Rattus norvegicus. The test can be described thus: Effect on helpless behavior in rats and the number of escape failures was determined in shuttle-box session-2 (SB-2) at 10 mg/kg dose. The test is classed as functional.
Test [12] has as its system Mus musculus. The test can be described thus: Antidepressant-like activity in the forced swimming test (FST) in mice at 10 mg/kg dose. The format is functional.
Test [13] addresses T2, Adrenergic receptor alpha-2 (Rattus norvegicus, UniProt P22086+P19328+P22909).
T2 sequence (P22086 whole entry): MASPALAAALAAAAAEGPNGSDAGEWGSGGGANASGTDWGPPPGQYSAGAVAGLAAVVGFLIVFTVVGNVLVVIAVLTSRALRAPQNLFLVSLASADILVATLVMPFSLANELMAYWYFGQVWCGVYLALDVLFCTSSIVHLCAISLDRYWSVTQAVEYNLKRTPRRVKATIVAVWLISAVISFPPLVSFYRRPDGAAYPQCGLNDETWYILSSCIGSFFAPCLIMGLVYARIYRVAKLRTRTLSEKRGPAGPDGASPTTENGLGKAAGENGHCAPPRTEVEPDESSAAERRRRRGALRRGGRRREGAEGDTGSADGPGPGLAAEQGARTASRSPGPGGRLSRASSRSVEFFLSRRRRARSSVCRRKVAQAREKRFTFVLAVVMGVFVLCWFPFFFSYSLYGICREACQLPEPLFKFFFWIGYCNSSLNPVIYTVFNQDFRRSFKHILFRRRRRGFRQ
T2 sequence (P19328 whole entry): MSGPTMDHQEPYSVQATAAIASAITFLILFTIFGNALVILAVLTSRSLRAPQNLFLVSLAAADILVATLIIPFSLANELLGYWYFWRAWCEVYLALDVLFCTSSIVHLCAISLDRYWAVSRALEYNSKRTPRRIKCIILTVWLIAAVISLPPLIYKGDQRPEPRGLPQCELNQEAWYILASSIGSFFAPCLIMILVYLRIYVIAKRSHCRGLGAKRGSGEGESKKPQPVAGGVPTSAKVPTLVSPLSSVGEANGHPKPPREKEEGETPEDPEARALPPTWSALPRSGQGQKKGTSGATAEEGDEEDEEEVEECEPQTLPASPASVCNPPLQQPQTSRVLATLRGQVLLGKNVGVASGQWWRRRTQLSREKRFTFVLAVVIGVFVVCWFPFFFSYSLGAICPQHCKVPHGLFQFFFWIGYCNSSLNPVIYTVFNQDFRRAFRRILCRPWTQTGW
T2 sequence (P22909 whole entry): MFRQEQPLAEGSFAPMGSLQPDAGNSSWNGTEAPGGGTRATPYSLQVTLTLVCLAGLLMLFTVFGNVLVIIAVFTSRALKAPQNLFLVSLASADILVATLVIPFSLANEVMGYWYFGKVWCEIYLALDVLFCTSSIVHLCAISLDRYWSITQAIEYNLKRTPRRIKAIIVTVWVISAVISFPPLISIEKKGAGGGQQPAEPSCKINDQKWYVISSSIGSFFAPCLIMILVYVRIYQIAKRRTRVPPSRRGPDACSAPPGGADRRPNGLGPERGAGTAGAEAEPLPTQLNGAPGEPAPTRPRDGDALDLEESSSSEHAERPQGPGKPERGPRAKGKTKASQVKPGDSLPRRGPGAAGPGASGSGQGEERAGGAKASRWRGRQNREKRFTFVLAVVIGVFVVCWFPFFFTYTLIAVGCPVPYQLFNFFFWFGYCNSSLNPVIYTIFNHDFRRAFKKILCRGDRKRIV
Nature of the test: Affinity towards alpha-2 adrenergic receptor (For clonidine Ki(nM)= […]+/-[…]). The format is protein assay.

The target in another test is Adrenergic receptor beta (Rattus norvegicus, UniProt P18090+P10608+P26255). The test can be described thus: Affinity at beta-adrenoceptor (For DHA Ki(nM)= 3.5+/-0.3). The test is classed as protein assay.
Test [14] has as its target 5-hydroxytryptamine receptor 2A (Rattus norvegicus, UniProt P14842). Nature of the test: Affinity at 5-hydroxytryptamine 2 receptor (For ketanserin = Ki(nM)= 0.7+/-0.09).
Test [15] relates to Mus musculus. Nature of the test: Antidepressant-like activity in the forced swimming test (FST) in mice at 0.1 mg/kg dose. The test is classed as functional.
The target of a further test is D(2) dopamine receptor (Rattus norvegicus, UniProt P61169). Nature of the test: Affinity at dopamine D2 receptor, (For haloperidol Ki(nM)= 1.5+/-1.2).
For test [16], the system named is Mus musculus. Nature of the test: Antidepressant-like activity in the forced swimming test (FST) in mice at 1 mg/kg dose. The format is functional.
For test [17], the target named is 5-hydroxytryptamine receptor 1D (Homo sapiens, UniProt P28221). The test can be described thus: Affinity at 5-hydroxytryptamine 1D receptor (For sumatriptan = Ki (nM)-12+/-1.9).
For test [18], the target named is T1, 5-hydroxytryptamine receptor 1A (Homo sapiens). Nature of the test: Percent increase in the Forskolin-Stimulated cAMP formation, in HeLa cells transfected with the 5-HT 1A receptor a [compound (1 uM)]. The format is functional, cell-based.

Sequence of 5-hydroxytryptamine receptor 1D (P28221 whole entry): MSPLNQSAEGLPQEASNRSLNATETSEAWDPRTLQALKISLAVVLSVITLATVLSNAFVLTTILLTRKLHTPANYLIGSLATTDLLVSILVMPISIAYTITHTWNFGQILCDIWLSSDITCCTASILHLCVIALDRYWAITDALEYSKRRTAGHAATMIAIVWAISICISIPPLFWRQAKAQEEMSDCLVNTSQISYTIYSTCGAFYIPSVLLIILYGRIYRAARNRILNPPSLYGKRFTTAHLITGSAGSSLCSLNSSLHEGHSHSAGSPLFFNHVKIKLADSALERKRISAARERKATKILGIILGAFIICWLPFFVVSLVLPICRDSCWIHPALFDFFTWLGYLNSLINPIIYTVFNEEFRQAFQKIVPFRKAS
Sequence of D(2) dopamine receptor (P61169 whole entry): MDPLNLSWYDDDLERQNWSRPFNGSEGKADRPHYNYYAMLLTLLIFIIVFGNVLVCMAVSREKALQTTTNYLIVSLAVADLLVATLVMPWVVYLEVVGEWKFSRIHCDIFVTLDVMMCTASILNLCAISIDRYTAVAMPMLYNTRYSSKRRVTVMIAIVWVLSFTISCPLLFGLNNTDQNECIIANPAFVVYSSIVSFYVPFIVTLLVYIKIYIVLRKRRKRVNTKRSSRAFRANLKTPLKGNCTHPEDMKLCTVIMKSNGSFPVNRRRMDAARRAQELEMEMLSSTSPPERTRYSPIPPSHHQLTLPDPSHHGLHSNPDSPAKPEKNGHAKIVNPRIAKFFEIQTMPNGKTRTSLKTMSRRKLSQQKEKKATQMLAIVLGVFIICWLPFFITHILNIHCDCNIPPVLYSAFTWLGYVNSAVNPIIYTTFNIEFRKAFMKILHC
Sequence of 5-hydroxytryptamine receptor 2A (P14842 whole entry): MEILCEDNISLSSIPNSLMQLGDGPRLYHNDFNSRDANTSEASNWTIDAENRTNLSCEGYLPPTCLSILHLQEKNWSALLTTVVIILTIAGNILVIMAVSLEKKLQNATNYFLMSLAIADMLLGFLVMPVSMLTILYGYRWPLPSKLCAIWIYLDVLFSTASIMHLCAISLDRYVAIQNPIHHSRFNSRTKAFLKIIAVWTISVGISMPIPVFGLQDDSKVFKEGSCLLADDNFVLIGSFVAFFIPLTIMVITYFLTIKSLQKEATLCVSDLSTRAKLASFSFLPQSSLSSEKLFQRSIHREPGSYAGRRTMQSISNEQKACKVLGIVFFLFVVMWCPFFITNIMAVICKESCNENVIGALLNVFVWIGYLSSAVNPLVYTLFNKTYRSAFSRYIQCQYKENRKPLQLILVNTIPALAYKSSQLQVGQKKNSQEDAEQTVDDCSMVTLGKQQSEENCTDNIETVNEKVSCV

In test [1], `COc1ccccc1N1CCN(CCC(O)c2csc3ccccc23)CC1` (stereo not given) showed a cAMP increase of 64%. Also, the figures for the Temperature change with Mus musculus [2], with Mus musculus [5] and in the test on Mus musculus [6] were -0.73 °C, -1.3 °C and -1.26 °C, respectively. Moreover, the values for the Immobility time with Mus musculus [3] and with Mus musculus [9] were under 58.8 s and under 54.4 s, respectively. For the same compound, the “No. of escape failures” value is recorded as 1.8 in the test on Rattus norvegicus [4], 6.6 in the test on Rattus norvegicus [7] and 3.2 with Rattus norvegicus [11]. The figures for the Activity in the test with Mus musculus [8] and in the test with Mus musculus [10] were 70% and 67%, respectively.
For `COc1ccccc1N1CCN(CCC(=O)c2csc3ccccc23)CC1`, the Activity stood at 54% in the test with Mus musculus [12], 18% with Mus musculus [15] and 60% in the test with Mus musculus [16]. In addition, the Ki was 0.28 µM in [13]; over 5 µM on Adrenergic receptor beta; 5 µM in test [14]; 0.5 µM on D(2) dopamine receptor; 5 µM in test [17].
The compound `COc1ccccc1N1CCN(CCC(Oc2cccc3ccccc23)c2ccsc2)CC1` (stereo not given) yielded a cAMP increase in test [18] of 52%.
